From US7728012B2, “Carboxamide compounds and their use as calpain inhibitors” (Abbott GmbH & Co. KG, priority 2006, dated 2010) come the findings set out here.

For assay [1], the target named is T1, calpain-I isolated from human erythrocytes (Homo sapiens, UniProt P07384).
T1 construct: calpain-I—isolated from human erythrocytes; purchased Calbiochem 208713; host or cells: human erythrocytes (tissue isolate)
T1 sequence (P07384 1-714): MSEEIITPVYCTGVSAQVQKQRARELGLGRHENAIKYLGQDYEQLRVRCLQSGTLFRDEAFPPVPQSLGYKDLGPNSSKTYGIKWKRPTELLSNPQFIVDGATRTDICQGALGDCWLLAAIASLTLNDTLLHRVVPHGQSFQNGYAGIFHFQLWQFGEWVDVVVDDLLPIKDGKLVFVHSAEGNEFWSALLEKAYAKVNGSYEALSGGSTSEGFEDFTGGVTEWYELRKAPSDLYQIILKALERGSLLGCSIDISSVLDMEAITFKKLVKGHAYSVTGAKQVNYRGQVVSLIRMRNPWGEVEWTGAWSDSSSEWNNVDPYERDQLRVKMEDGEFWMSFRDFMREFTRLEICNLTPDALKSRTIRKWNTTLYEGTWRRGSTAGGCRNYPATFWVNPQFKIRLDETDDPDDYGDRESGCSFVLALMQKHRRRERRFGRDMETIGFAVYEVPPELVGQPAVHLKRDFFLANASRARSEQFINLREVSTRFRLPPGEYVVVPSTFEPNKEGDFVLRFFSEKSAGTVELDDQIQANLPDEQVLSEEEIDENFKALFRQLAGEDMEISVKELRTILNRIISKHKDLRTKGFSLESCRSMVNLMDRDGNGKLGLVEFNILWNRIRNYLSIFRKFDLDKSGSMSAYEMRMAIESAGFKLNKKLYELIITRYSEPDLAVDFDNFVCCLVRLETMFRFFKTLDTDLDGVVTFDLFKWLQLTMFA
T1 sequence (P04632 1-268 partner): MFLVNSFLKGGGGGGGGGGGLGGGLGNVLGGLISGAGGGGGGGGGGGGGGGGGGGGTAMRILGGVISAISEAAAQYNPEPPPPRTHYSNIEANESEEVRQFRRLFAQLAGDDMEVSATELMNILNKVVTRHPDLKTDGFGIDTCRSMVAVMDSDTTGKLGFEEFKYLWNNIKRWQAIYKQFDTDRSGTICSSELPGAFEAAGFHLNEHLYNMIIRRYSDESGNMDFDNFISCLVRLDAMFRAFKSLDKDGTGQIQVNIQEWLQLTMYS
Description: Calpain I kinetic fluorescence enzyme inhibition assay. The format is biochemical. The settings on record: apparent Ki from IC50 by Cheng-Prussoff; average of 2 to 4 dose-effect plots. On the procedure: (§1) The following solutions and buffers were employed: • HBS (for 40 ml): 800 μl M HEPES; 2.16 ml 100 mM KCl; 4.8 ml 1M NaCl; 3.59 ml 5% glucose; 60 μl μM MgSO4; 400 μl 100 mM Na pyruvate, 28.19 ml water; pH 7.2-7.5. • lysis buffer (for 20 ml): 400 μl M Tris pH 8.2; 2.74 ml 1M NaCl; 520 μl 0.5M EDTA; 2 ml 10% triton X-100; 0.8 ml (=1:25) CompletePlus (1 tablet/2 ml H2O); 200 μl 100 mM Pefabloc; 13.34 ml water, pH 8.2. • TBST (10×) (for 1 l): 100 mM Tris (12.1 g); 1.5M NaCl (87 g); 1% Tween 20 (10 g), adjusted to pH 8. I Enzyme Inhibition In Vitro: • Testing for blockade of the corresponding enzymic activities was carried out by means of kinetic fluorescence assays (excitation 390 nm, emission 460 nm). • Apparent Ki values were calculated from the experimentally determined IC50 values by the Cheng-Prussoff relation assuming a reversible competitive enzyme inhibition. The Km values of the substrates used under the assay conditions indicated above were: 90 μM (Z-Phe-Arg-AMC, cathepsin B), 10 μM (Z-Gly-Pro-Arg-AMC, cathepsin K), 2 μM (Z-Phe-Arg-AMC, cathepsin L), and 30 μM (Z-Val-Val-Arg-AMC, cathepsin S). • The indicated Ki values are averages of the inhibition constants calculated on the basis of 2 to 4 independent dose-effect plots.
(§2) The following assays were used: • 1. Calpain I: • 20 nM calpain-I—isolated from human erythrocytes (Calbiochem #208713), 100 μM Suc-Leu-Tyr-AMC (Bachem #1-1355) as substrate in buffer with 62 mM imidazole, 0.3 mM CaCl2, 0.10% CHAPS, 0.05% BSA, 1 mM DTT at pH 7.3 and room temperature. • 2. Cathepsin B: • 0.25 nM cathepsin B—isolated from human liver (Calbiochem #219362), 100 μM Z-Phe-Arg-AMC (Bachem #I-1160) as substrate 50 mM MES, 2 mM EDTA, 0.05% Brij 35, 2.5 mM L-cysteine, pH 6.0, room temperature. • 3. Cathepsin K: • 3 nM cathepsin K—activated from recombinant human procathepsin K from E. coli (Calbiochem #342001), 10 μM Z-Gly-Pro-Arg-AMC (Biomol #P-142) as substrate in 50 mM MES, 2 mM EDTA, 0.05% Brij 35, 2.5 mM L-cysteine, pH 6.0, room temperature. • 4. Cathepsin L: • 1 nM cathepsin L—isolated from human liver (Calbiochem #219402), 2 μM Z-Phe-Arg-AMC (Bachem #1-1160) as substrate in 50 mM MES, 2 mM EDTA, 0.05% Brij 35, 2.5 mM L-cysteine, pH 6.0, room temperature. • 5. Cathepsin S: • 0.5 nM recombinant human cathepsin S from E. coli (Calbiochem #219343), 20 μM Z-Val-Val-Arg-AMC (Bachem #1-1540) as substrate in 50 mM MES, 2 mM EDTA, 0.05% Brij 35, 2.5 mM L-cysteine, pH 6.0, room temperature. • The results of the in vitro determination are indicated in Table 1. The following abbreviations are used in Table 1: • The “Calpain activity” column, ++ stands for a calpain Ki (Ki(calpain)) of ≦40 nM and + means: 40 nM<Ki(Calpain)≦100 nM. • The “Sel. cat. B” column indicates the Ki(cathepsin B)/Ki(calpain) ratio. In this connection, ++ means a Ki(cathepsin B)/Ki(calpain) ratio of ≧30 and + means 10≦Ki(cathepsin B)/Ki(calpain)<30. • The “Sel. cat. K” column indicates the Ki(cathepsin K)/Ki(calpain) ratio. In this connection, ++ means a Ki(cathepsin K)/Ki(calpain) ratio of ≧30 and + means 10≦Ki(cathepsin K)/Ki(calpain)<30. • The “Sel. cat. L” column indicates the Ki(cathepsin L)/Ki(calpain) ratio. In this connection, ++ means a Ki(cathepsin L)/Ki(calpain) ratio of ≧50 and + means 30≦Ki(cathepsin L)/Ki(calpain)<50. • The “Sel. cat. S” column indicates the Ki(cathepsin S)/Ki(calpain) ratio. In this connection, ++ means a Ki(cathepsin S)/Ki(calpain) ratio of ≧100 and + means 50≦Ki(cathepsin S)/Ki(calpain)<100.

Assay [2] has as its target T2, recombinant human cathepsin S (Homo sapiens, UniProt P25774).
T2 construct: purchased Calbiochem 219343; host or cells: E. coli
Description: Cathepsin S kinetic fluorescence enzyme inhibition assay. The format is biochemical. Particulars: selectivity ratio versus calpain I. The method, then:
as §1, §2

T2 sequence (P25774 115-331): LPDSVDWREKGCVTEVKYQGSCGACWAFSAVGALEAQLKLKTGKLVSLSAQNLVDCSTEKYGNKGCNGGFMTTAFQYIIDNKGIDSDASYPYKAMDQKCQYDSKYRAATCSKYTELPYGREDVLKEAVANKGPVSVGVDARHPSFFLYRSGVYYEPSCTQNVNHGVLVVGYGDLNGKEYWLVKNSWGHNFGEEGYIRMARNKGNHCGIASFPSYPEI

In the case of `NC(=O)C(=O)C(Cc1ccccc1)NC(=O)c1cccnc1-n1cnc(-c2ccc(N3CCOCC3)cc2)c1` (stereo not drawn) [Example 14, N-(3-Amino-1-benzyl-2,3-dioxopropyl)-2-[4-(4-morpholin-4-ylphenyl)-1H-imidazol-1-yl]nicotinamide], in assay [1], the Ki is 0.04 to 0.1 µM. The “Sel cat. S (Ki(cathepsin S)/Ki(calpain) ratio)” value in assay [2] is “++ (Ki(cathepsin S)/Ki(calpain) ratio of ≧100)”.

For the compound `CCN(CC)c1ccc(-c2ccn(-c3ncccc3C(=O)NC(Cc3ccccc3)C(=O)C(N)=O)n2)cc1` (stereo not drawn) [Example 42, N-(3-Amino-1-benzyl-2,3-dioxopropyl)-2-{3-[4-(diethylamino)phenyl]-1H-pyrazol-1-yl}nicotinamide], the Ki in assay [1] was at most 0.04 µM. In addition, the “Sel cat. S (Ki(cathepsin S)/Ki(calpain) ratio)” value in assay [2] is “++ (Ki(cathepsin S)/Ki(calpain) ratio of ≧100)”.

For `CCN(CC)Cc1ccc(-c2ccn(-c3ncccc3C(=O)NC(Cc3ccccc3)C(=O)C(N)=O)n2)cc1.Cl` (stereo not drawn) [Example 43, N-(3-Amino-1-benzyl-2,3-dioxopropyl)-2-(3-{4-[(diethylamino)methyl]phenyl}-1H-pyrazol-1-yl)nicotinamide hydrochloride], the Ki in assay [1] lay in the range of 0.04 to 0.1 µM. Also, the “Sel cat. S (Ki(cathepsin S)/Ki(calpain) ratio)” value in assay [2] was “++ (Ki(cathepsin S)/Ki(calpain) ratio of ≧100)”.

As to `CCCCC(NC(=O)c1cccnc1-n1ccc(-c2ccc(CN(CC)CC)cc2)n1)C(=O)C(N)=O` (stereo not drawn) [Example 44, N-{1-[Amino(oxo)acetyl]pentyl}-2-(3-{4-[(diethylamino)methyl]phenyl}-1H-pyrazol-1-yl)nicotinamide], in assay [1], the Ki is at most 0.04 µM. For the same compound, the “Sel cat. S (Ki(cathepsin S)/Ki(calpain) ratio)” value in assay [2] is on record as “+ (50≦Ki(cathepsin S)/Ki(calpain)<100)”.

As to `CCCCC(NC(=O)c1cccnc1-n1ccc(-c2ccc(CN3CCOCC3)cc2)n1)C(=O)C(N)=O` (stereo not drawn) [Example 45, N-{1-[Amino(oxo)acetyl]pentyl}-2-{3-[4-(morpholin-4-ylmethyl)phenyl]-1H-pyrazol-1-yl}nicotinamide], the Ki in assay [1] is at most 0.04 µM. The “Sel cat. S (Ki(cathepsin S)/Ki(calpain) ratio)” value in assay [2] is listed as “+ (50≦Ki(cathepsin S)/Ki(calpain)<100)”.

Take `NC(=O)C(=O)C(Cc1ccccc1)NC(=O)c1cccnc1-n1ccc(-c2ccc(CN3CCOCC3)cc2)n1` (stereo not drawn) [Example 46, N-(3-Amino-1-benzyl-2,3-dioxopropyl)-2-{3-[4-(morpholin-4-ylmethyl)phenyl]-1H-pyrazol-1-yl}nicotinamide]: the Ki in assay [1] is 0.04 to 0.1 µM. In addition, the “Sel cat. S (Ki(cathepsin S)/Ki(calpain) ratio)” value in assay [2] is “++ (Ki(cathepsin S)/Ki(calpain) ratio of ≧100)”.

For `CCCCC(NC(=O)c1cccnc1-n1ccc(-c2ccc(N(CC)CC)cc2)n1)C(=O)C(N)=O` (stereo not drawn) [Example 47, N-{1-[Amino(oxo)acetyl]pentyl}-2-{3-[4-(diethylamino)phenyl]-1H-pyrazol-1-yl}nicotinamide], the Ki in assay [1] is at most 0.04 µM. Moreover, in assay [2], the “Sel cat. S (Ki(cathepsin S)/Ki(calpain) ratio)” value is listed as “++ (Ki(cathepsin S)/Ki(calpain) ratio of ≧100)”.

As to `Cl.NC(=O)C(=O)C(Cc1ccccc1)NC(=O)c1cccnc1-n1ccc(-c2cccc(CN3CCOCC3)c2)n1` (stereo not drawn) [Example 52, N-(3-Amino-1-benzyl-2,3-dioxopropyl)-2-{3-[3-(morpholin-4-ylmethyl)phenyl]-1H-pyrazol-1-yl}nicotinamide hydrochloride], in assay [1], the Ki is 0.04 to 0.1 µM. In addition, the “Sel cat. S (Ki(cathepsin S)/Ki(calpain) ratio)” value in assay [2] is “++ (Ki(cathepsin S)/Ki(calpain) ratio of ≧100)”.

Regarding `NC(=O)C(=O)C(Cc1ccccc1)NC(=O)c1cccnc1-n1ccc(-c2ccc(-n3ccnc3)cc2)n1` (stereo not drawn) [Example 101, N-[3-Amino-2,3-dioxo-1-(phenylmethyl)propyl]-2-{3-[4-(1H-imidazol-1-yl)phenyl]-1H-pyrazol-1-yl}pyridine-3-carboxamide], in assay [1], the Ki is at most 0.04 µM. In addition, the “Sel cat. S (Ki(cathepsin S)/Ki(calpain) ratio)” value in assay [2] is “++ (Ki(cathepsin S)/Ki(calpain) ratio of ≧100)”.

As for `NC(=O)C(=O)C(Cc1ccccc1)NC(=O)c1cccnc1-n1cc(-c2ccccc2F)cn1` (stereo not drawn) [Example 104, N-[3-Amino-2,3-dioxo-1-(phenylmethyl)propyl]-2-[4-(2-fluorophenyl)-1H-pyrazol-1-yl]pyridine-3-carboxamide], in assay [1], the Ki is at most 0.04 µM. Besides, the “Sel cat. S (Ki(cathepsin S)/Ki(calpain) ratio)” value in assay [2] is listed as “+ (50≦Ki(cathepsin S)/Ki(calpain)<100)”.

For `NC(=O)C(=O)C(Cc1ccccc1)NC(=O)c1cccnc1-n1cc(CCN2CCOCC2)c(-c2ccc(F)cc2)n1` (stereo not drawn) [Example 165, N-[3-Amino-2,3-dioxo-1-(phenylmethyl)propyl]-2-[3-(4-fluorophenyl)-4-(2-morpholin-4-ylethyl)-1H-pyrazol-1-yl]pyridine-3-carboxamide], the Ki in assay [1] is 0.04 to 0.1 µM. Besides, the “Sel cat. S (Ki(cathepsin S)/Ki(calpain) ratio)” value in assay [2] is on record as “++ (Ki(cathepsin S)/Ki(calpain) ratio of ≧100)”.

As to `NC(=O)C(=O)C(Cc1ccccc1)NC(=O)c1cccnc1-n1cc(CN2CCOCC2)c(-c2cccc(C(F)(F)F)c2)n1` (stereo not drawn) [Example 177, N-[3-Amino-2,3-dioxo-1-(phenylmethyl)propyl]-2-{4-(morpholin-4-ylmethyl)-3-[3-(trifluoromethyl)phenyl]-1H-pyrazol-1-yl}pyridine-3-carboxamide], in assay [1], the Ki fell in the range of 0.04 to 0.1 µM. Moreover, the “Sel cat. S (Ki(cathepsin S)/Ki(calpain) ratio)” value in assay [2] is “++ (Ki(cathepsin S)/Ki(calpain) ratio of ≧100)”.
